Measurements from article PMC10060569 (Frontiers in Pharmacology, 2023).

Target: T1, S15V-hP2X3R (Homo sapiens, UniProt P56373, S15V)
T1 construct: expressed in transfected cells; host or cells: Xenopus laevis oocytes (cRNA injection)
T1 sequence (P56373 1-397 S15V): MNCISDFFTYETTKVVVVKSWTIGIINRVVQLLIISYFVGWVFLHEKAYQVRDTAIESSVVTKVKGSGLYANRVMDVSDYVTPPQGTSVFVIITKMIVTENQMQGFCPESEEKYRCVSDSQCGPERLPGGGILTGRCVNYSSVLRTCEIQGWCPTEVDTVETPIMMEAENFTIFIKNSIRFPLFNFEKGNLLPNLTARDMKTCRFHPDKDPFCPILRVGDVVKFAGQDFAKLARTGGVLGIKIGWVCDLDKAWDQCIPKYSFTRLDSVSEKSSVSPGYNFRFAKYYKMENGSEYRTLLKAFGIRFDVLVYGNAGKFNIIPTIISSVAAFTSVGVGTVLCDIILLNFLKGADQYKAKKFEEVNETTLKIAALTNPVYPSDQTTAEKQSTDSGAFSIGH
Assay: TEVC of ATP-induced currents, S15V-hP2X3R expressed in X. laevis oocytes (peak current protocol)
Format: cell-based
Conditions: for IC50: 30-s preincubation of antagonist, X. laevis oocytes, −60 mV, geometric mean
Source text: Oocyte expression plasmids encoding the wild-type (wt) and N-terminally His-tagged (His-) fusion constructs of the hP2X2R, hP2X3R, hP2X4R, and hP2X7R, and the mutant His-^20RMVL^23KVIV^23S^26N-hP2X1R, S^15V-rP2X3R, and His-S^15V-hP2X3R were the same as used in previous research ([Hausmann et al., 2006]; [Wolf et al., 2011]; [Hausmann et al., 2014]; [Obrecht et al., 2019]). In most cases, the N-terminal His-tagged variants of P2XRs were used here and in the previous studies to allow biochemical analyses on affinity-purified proteins using the same constructs. Although this was not required for the present study, it allows for better comparability with our previous studies. Capped cRNAs of different P2XRs were already available in the research group or were synthesized as previously described ([Schmalzing et al., 1991]; [Stolz et al., 2015]). cRNA was injected into collagenase-defolliculated X. laevis oocytes in aliquots of 41 nl or 23 nl (see Supplementary Table S1 for the amount of cRNA used for expression of the indicated P2XR) using a Nanoliter 2000 injector (World Precision Instruments, Sarasota, United States of America) as described previously ([Hausmann et al., 2014]; [Stolz et al., 2015]; [Obrecht et al., 2019]). To express the heteromeric hP2X2/3 receptor, cRNAs encoding His-hP2X2R and wt-hP2X3R were coinjected at a ratio (w/w) of 1:6. Oocytes were stored at 19°C in an oocyte ringer solution (ORi^+) containing 90 mM NaCl, 1 mM KCl, 1 mM CaCl2, 1 mM MgCl2, and 10 mM HEPES (Carl Roth, Karlsruhe, Germany) adjusted to pH 7.4 with NaOH and supplemented with 50 μg/ml gentamicin (AppliChem, Darmstadt, Germany). The procedures followed for the maintenance of and the surgical treatment for X. laevis adults were approved by the governmental animal care and use committee of the State Agency for Nature, Environment, and Consumer Protection (LANUV, Recklinghausen, Germany; reference no. 81-02.04.2019. A355), in compliance with Directive 2010/63/EU of the European Parliament and of the Council on the protection of animals used for scientific purpose.
Ion currents mediated by P2X receptors were evoked by the indicated concentration of ATP or α,β-meATP and were recorded 1 or 2 days after cRNA injection at ambient temperature at a holding potential of −60 mV by two-electrode voltage clamp (TEVC) as previously described ([Hausmann et al., 2006]). Calcium-free ORi^− solution (90 mM NaCl, 1 mM KCl, 2 mM MgCl2, 10 mM HEPES, pH 7.4) was used to avoid bias due to calcium-activated chloride channels (CaCC) endogenously expressed in X. laevis oocytes ([Miledi, 1982]; [Methfessel et al., 1986]). For recordings of wt-hP2X7R, the composition of the ORi^− solution was modified according to protocols described previously and contained 100 mM NaCl, 2.5 mM KCl, 1 mM MgCl2, 5 mM HEPES, pH 7.4 ([Klapperstück et al., 2000]). The oocytes were continuously superfused with ORi^− by gravity flow (5–10 ml/min). The agonists ATP or α,β-meATP and the investigated NSAIDs were diluted in ORi^− on the day of the recording. […] A peak current protocol (Supplementary Figure S1) was used to analyze fast- and intermediate desensitizing P2XR subtypes (P2X1R, P2X3R, and S^15V-P2X3R), and a steady-state protocol (Supplementary Figure S2) was used for slowly or partially desensitizing P2X subtypes (P2X2R, P2X2/3R, and P2X4R). For recordings of P2X7R, a modified steady-state protocol was used ([Hausmann et al., 2006]). The application of different bath solutions was controlled by computer-operated magnetic valves controlled by the CellWorks E 5.5.1 software (npi electronic, Tamm, Germany).
Antagonist concentration–response data and IC50 values were calculated by normalizing ATP-induced responses to the control responses (recorded in the presence and absence of the antagonist, respectively). […]

IC50 (1 µM ATP) [µM]	inhibition at 1000 µM (1 mM antagonist, 1 µM ATP, mean ± SEM, read-out: Max. inhibition at 1 mM) [%]	reversibility of the inhibitory effect by washout (subsequent control current after washout)	reduction of ATP-induced current amplitude at 100 µM antagonist (1 µM ATP)	SMILES
32.4	53	not reversible		Cc1c(Nc2ncccc2C(=O)O)cccc1C(F)(F)F [Flunixin, flunixin]
> 300			15%–18%	CC(C)Cc1ccc(C(C)C(=O)O)cc1 (stereo not drawn) [Ibuprofen, ibuprofen]
> 300			15%–18%	Cc1ccc(Cl)c(Nc2ccccc2C(=O)O)c1Cl [Meclofenamic acid, meclofenamic acid]
> 300			15%–18%	COc1ccc2cc([C@H](C)C(=O)O)ccc2c1 [Naproxen, naproxen]
